Earlier results on two molecules are cited in US10385093B2, “Estrogen receptor imaging agents” (Northeastern University, priority 2012, dated 2019).

The conditions of series [1]: plasma of patients.
Series [2] addresses T1, steroid hormone binding globulin (SHBG) (Homo sapiens, UniProt P04278).
T1 construct: host or cells: circulating plasma
T1 sequence (P04278 30-402): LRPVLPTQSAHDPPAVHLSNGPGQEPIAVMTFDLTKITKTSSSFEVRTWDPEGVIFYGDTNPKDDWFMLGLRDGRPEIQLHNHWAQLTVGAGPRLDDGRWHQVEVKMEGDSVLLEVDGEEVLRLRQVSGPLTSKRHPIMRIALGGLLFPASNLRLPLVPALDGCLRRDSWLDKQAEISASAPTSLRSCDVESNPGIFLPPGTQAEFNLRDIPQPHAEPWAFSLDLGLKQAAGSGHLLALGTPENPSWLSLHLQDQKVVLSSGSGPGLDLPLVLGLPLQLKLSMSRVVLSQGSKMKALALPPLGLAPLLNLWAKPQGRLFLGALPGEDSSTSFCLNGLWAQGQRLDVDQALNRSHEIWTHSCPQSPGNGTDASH

For series [3] the following is noted: rats, by 60 minutes after injection.
The next series relates to ER. The note with it: binding to ER in target tissues.
The conditions of series [4]: small animal studies.

For the molecule `C[C@]12CC[C@@H]3c4ccc(O)cc4CC[C@H]3[C@@H]1C[C@@H](F)[C@@H]2O` [FES, [^18F]-16α-fluoroestradiol], the “radioactivity in plasma that is parent FES” value in series [1] is recorded as “less than 20%”. For the same molecule, in series [2], the “FES in circulating plasma complexed with SHBG” value is reported as at most 45%. For the same molecule, the “circulating radioactivity due to [18F]-FES” value in series [3] is recorded as “less than 15%”. In the series with ER, the “relative binding affinity (RBA)” value is listed as 80%.
Take `CO[C@H]1C[C@]2(C)[C@@H](O)[C@H]([18F])C[C@H]2[C@@H]2CCc3c(ccc(O)c3F)[C@H]21` [4FMFES, 4-Fluoro-11β-methoxy-16α-[^18F]-flouroestradiol]: in series [4], the “selectivity uptake ratios compared with [^18F]-ES” value is on record as “higher selectivity uptake ratios”.
